Measured values taken from article PMC5497837 (Journal of basic and clinical physiology and pharmacology, 2016).
pEC50: −log10 of the molar value.

Target: CB1 cannabinoid receptor (CB1R) (Mus musculus, UniProt P47746)
Experiment: inhibition of forskolin-activated cAMP accumulation in N18TG2 cells
Format: cell-based

CB1 cannabinoid receptor (CB1R), sequence (P47746 whole entry): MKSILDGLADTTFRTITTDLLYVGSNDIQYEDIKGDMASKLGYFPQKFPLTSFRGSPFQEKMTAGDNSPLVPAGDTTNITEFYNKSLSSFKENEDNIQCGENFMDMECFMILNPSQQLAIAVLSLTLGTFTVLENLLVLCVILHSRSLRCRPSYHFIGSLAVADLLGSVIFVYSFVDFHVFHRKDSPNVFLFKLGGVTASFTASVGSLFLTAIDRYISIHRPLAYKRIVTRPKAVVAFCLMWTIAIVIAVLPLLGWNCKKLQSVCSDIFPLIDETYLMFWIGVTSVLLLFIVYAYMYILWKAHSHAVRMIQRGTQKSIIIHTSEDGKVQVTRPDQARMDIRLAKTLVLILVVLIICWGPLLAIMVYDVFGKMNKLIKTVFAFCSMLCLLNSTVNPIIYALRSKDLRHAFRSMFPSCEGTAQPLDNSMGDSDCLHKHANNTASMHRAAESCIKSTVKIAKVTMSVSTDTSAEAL

For `CCCCCCC(C)(C)c1ccc([C@@H]2C[C@@H](O)CC[C@H]2CCCO)c(O)c1` [CP55940, (-)-3-[2-hydroxyl-4-(1,1-dimethylheptyl)phenyl]-4-[3-hydroxylpropyl] cyclohexan-1-ol], the pEC50 was 8.51.
